In the NIST ThermoML archive (doi:10.1021/je200856f):

Assay: mn = molality of the nth substance listed, in mol/kg
Conditions: 101 kPa, Liquid; for mass density: Vibrating tube method; for electrical conductivity: Wheatstone bridge equipment

C[N+](C)(C)CCCl.[Cl-] [2-chloro-N,N,N-trimethylethanaminium chloride] + O
Conditions | electrical conductivity [S/m] | mass density [kg/m3] | viscosity [mPa·s]
278.15 K, m1 = 0.0236 | – | – | 1.526
278.15 K, m1 = 0.0464 | – | – | 1.536
278.15 K, m1 = 0.0506 | – | 1001.45 | –
278.15 K, m1 = 0.0994 | – | – | 1.555
278.15 K, m1 = 0.1009 | – | 1002.89 | –
278.15 K, m1 = 0.2364 | – | 1006.79 | –
278.15 K, m1 = 0.2464 | – | – | 1.61
278.15 K, m1 = 0.3552 | – | – | 1.656
278.15 K, m1 = 0.499 | – | – | 1.712
278.15 K, m1 = 0.501 | – | 1013.92 | –
278.15 K, m1 = 0.6479 | – | – | 1.778
278.15 K, m1 = 0.6523 | – | 1017.88 | –
278.15 K, m1 = 0.7493 | – | – | 1.815
278.15 K, m1 = 0.7529 | – | 1020.46 | –
278.15 K, m1 = 0.9041 | – | – | 1.914
278.15 K, m1 = 0.9927 | – | – | 1.933
278.15 K, m1 = 1.176 | – | – | 2.01
278.15 K, m1 = 1.2 | – | 1031.18 | –
278.15 K, m1 = 1.497 | – | 1038.13 | –
278.15 K, m1 = 1.542 | – | – | 2.298
278.15 K, m1 = 1.986 | – | 1048.24 | –
278.15 K, m1 = 2.148 | – | – | 2.612
288.15 K, m1 = 0.0236 | – | – | 1.148
288.15 K, m1 = 0.0464 | – | – | 1.156
288.15 K, m1 = 0.0506 | – | 1000.52 | –
288.15 K, m1 = 0.0994 | – | – | 1.172
288.15 K, m1 = 0.1009 | – | 1001.9 | –
288.15 K, m1 = 0.2364 | – | 1005.65 | –
288.15 K, m1 = 0.2464 | – | – | 1.211
288.15 K, m1 = 0.3552 | – | – | 1.241
288.15 K, m1 = 0.499 | – | – | 1.286
288.15 K, m1 = 0.501 | – | 1012.48 | –
288.15 K, m1 = 0.6479 | – | – | 1.335
288.15 K, m1 = 0.6523 | – | 1016.28 | –
288.15 K, m1 = 0.7493 | – | – | 1.362
288.15 K, m1 = 0.7529 | – | 1018.75 | –
288.15 K, m1 = 0.9041 | – | – | 1.433
288.15 K, m1 = 0.9927 | – | – | 1.447
288.15 K, m1 = 1.176 | – | – | 1.502
288.15 K, m1 = 1.2 | – | 1029.02 | –
288.15 K, m1 = 1.497 | – | 1035.68 | –
288.15 K, m1 = 1.542 | – | – | 1.708
288.15 K, m1 = 1.986 | – | 1045.39 | –
288.15 K, m1 = 2.148 | – | – | 1.932
298.15 K, m1 = 0.0236 | – | – | 0.907
298.15 K, m1 = 0.0277 | 0.265 | – | –
298.15 K, m1 = 0.0464 | – | – | 0.913
298.15 K, m1 = 0.0506 | – | 998.426 | –
298.15 K, m1 = 0.0514 | 0.49 | – | –
298.15 K, m1 = 0.0994 | – | – | 0.924
298.15 K, m1 = 0.1003 | 0.898 | – | –
298.15 K, m1 = 0.1009 | – | 999.762 | –
298.15 K, m1 = 0.2364 | – | 1003.4 | –
298.15 K, m1 = 0.2464 | – | – | 0.955
298.15 K, m1 = 0.2497 | 1.97 | – | –
298.15 K, m1 = 0.3502 | 2.58 | – | –
298.15 K, m1 = 0.3552 | – | – | 0.977
298.15 K, m1 = 0.499 | – | – | 1.012
298.15 K, m1 = 0.5001 | 3.36 | – | –
298.15 K, m1 = 0.501 | – | 1010.02 | –
298.15 K, m1 = 0.6479 | – | – | 1.047
298.15 K, m1 = 0.6509 | 4.1 | – | –
298.15 K, m1 = 0.6523 | – | 1013.7 | –
298.15 K, m1 = 0.7493 | – | – | 1.069
298.15 K, m1 = 0.7498 | 4.51 | – | –
298.15 K, m1 = 0.7529 | – | 1016.09 | –
298.15 K, m1 = 0.8997 | 5.07 | – | –
298.15 K, m1 = 0.9041 | – | – | 1.124
298.15 K, m1 = 0.9927 | – | – | 1.133
298.15 K, m1 = 0.9998 | 5.42 | – | –
298.15 K, m1 = 1.176 | – | – | 1.173
298.15 K, m1 = 1.2 | – | 1026.04 | –
298.15 K, m1 = 1.212 | 6.08 | – | –
298.15 K, m1 = 1.497 | – | 1032.48 | –
298.15 K, m1 = 1.507 | 6.81 | – | –
298.15 K, m1 = 1.542 | – | – | 1.292
298.15 K, m1 = 1.986 | – | 1041.87 | –
298.15 K, m1 = 1.998 | 7.67 | – | –
298.15 K, m1 = 2.148 | – | – | 1.493
308.15 K, m1 = 0.0236 | – | – | 0.711
308.15 K, m1 = 0.0464 | – | – | 0.714
308.15 K, m1 = 0.0506 | – | 995.387 | –
308.15 K, m1 = 0.0994 | – | – | 0.722
308.15 K, m1 = 0.1009 | – | 996.694 | –
308.15 K, m1 = 0.2364 | – | 1000.25 | –
308.15 K, m1 = 0.2464 | – | – | 0.757
308.15 K, m1 = 0.3552 | – | – | 0.77
308.15 K, m1 = 0.499 | – | – | 0.793
308.15 K, m1 = 0.501 | – | 1006.72 | –
308.15 K, m1 = 0.6479 | – | – | 0.831
308.15 K, m1 = 0.6523 | – | 1010.32 | –
308.15 K, m1 = 0.7493 | – | – | 0.833
308.15 K, m1 = 0.7529 | – | 1012.65 | –
308.15 K, m1 = 0.9041 | – | – | 0.879
308.15 K, m1 = 0.9927 | – | – | 0.89
308.15 K, m1 = 1.176 | – | – | 0.915
308.15 K, m1 = 1.2 | – | 1022.36 | –
308.15 K, m1 = 1.497 | – | 1028.63 | –
308.15 K, m1 = 1.542 | – | – | 1.005
308.15 K, m1 = 1.986 | – | 1037.78 | –
308.15 K, m1 = 2.148 | – | – | 1.158
318.15 K, m1 = 0.0236 | – | – | 0.596
318.15 K, m1 = 0.0464 | – | – | 0.595
318.15 K, m1 = 0.0506 | – | 991.452 | –
318.15 K, m1 = 0.0994 | – | – | 0.602
318.15 K, m1 = 0.1009 | – | 992.837 | –
318.15 K, m1 = 0.2364 | – | 996.273 | –
318.15 K, m1 = 0.2464 | – | – | 0.645
318.15 K, m1 = 0.3552 | – | – | 0.66
318.15 K, m1 = 0.499 | – | – | 0.661
318.15 K, m1 = 0.501 | – | 1002.68 | –
318.15 K, m1 = 0.6479 | – | – | 0.694
318.15 K, m1 = 0.6523 | – | 1006.2 | –
318.15 K, m1 = 0.7493 | – | – | 0.691
318.15 K, m1 = 0.7529 | – | 1008.52 | –
318.15 K, m1 = 0.9041 | – | – | 0.733
318.15 K, m1 = 0.9927 | – | – | 0.75
318.15 K, m1 = 1.176 | – | – | 0.759
318.15 K, m1 = 1.2 | – | 1018.06 | –
318.15 K, m1 = 1.497 | – | 1024.21 | –
318.15 K, m1 = 1.542 | – | – | 0.835
318.15 K, m1 = 1.986 | – | 1033.17 | –
318.15 K, m1 = 2.148 | – | – | 0.948

O [water] + C[N+](C)(C)CCO.[Cl-]
Conditions | mass density [kg/m3]
278.15 K, m2 = 0 | 999.961
